This is an account of results in paper PMC4521150, “Discovery of Novel Inhibitors and Fluorescent Probe Targeting NAMPT” (Scientific Reports, 2015).

The structures appear in SMILES notation. Entries after “also recorded” stand apart in the source; their conditions may differ.

One test concerns HepG2 cells. Briefly: Live cell fluorescence imaging of compounds in HepG2 cells. The format is cell-based, human. To be noted: 3 μM. On the procedure: NAMPT knockdown in HepG2 cells was performed by transfection of NAMPT siRNA synthesized by Shanghai GenePharma Co., Ltd (Shanghai, China). The siRNA sequence targeting NAMPT corresponded to coding regions (5′-[…]-3′, 5′-[…]-3′) of the NAMPT gene. The nonspecific siRNA oligonucleotides (synthesized by Shanghai GenePharma Co., Ltd, Shanghai, China) were used as negative controls. 10 nM of NAMPT siRNA or nonspecific siRNA were transfected into HepG2 cells with Lipofectamine RNAiMax reagent (Invitrogen, CA, USA) according to the manufacturer’s instructions. After 24 or 48 hours, transfected cells were subjected to subsequent analysis.
(§1) For imaging experiment, HepG2 cells or primary hepatocytes were seeded into 35-mm glass bottom dishes (In Vitro Scientific). The following day, compounds were added to the medium at a final concentration of 3 μM. After 30 minutes, cells were rinsed twice with PBS (pH 7.5), then incubated in fresh culture medium and imaged on a fluorescence microscope (IX-71, Olympus) with a digital camera (Olympus). After 4 hours, these cells were imaged once again. Digital images were recorded and analyzed using ImageJ.

The next test deals with T1, recombinant human NAMPT (Homo sapiens, UniProt P43490).
T1 construct: His tag (N); made in house; host or cells: E. coli BL21-CodonPlus (DE3)-RIL, pET21a+ vector
Briefly: NAMPT activity assay, IC50 determination (fluorometric detection of NMN derivative). To be noted: molecular/biochemical assay, read-out: IC50 (NAMPT inhibition). From the text:
Using our previously established high throughput screening (HTS) platform and recombinant human NAMPT[14][15], we performed a HTS on a chemical library containing 30000 small-molecules (Chemdiv, CA, USA). Our HTS targeting NAMPT was developed based on a fluorometric method for NAMPT activity assay by measuring the fluorescence of nicotinamide mononucleotide (NMN) derivative resulting from the NAMPT enzymatic product NMN through simple chemical reactions (Fig. 1A). […] These fluorescent and non-fluorescent compounds were further studied separately.
HTS was performed using our previously reported method. 0.5 μl stock of each compound (1 mM DMSO stock) was transferred to a 96-well PCR plate for screening. In the primary screening, 5 ng NAMPT in 20 μl reaction buffer [0.4 mM phosphoribosylpyrophosphate (PRPP, Sigma), 2 mM ATP, 0.02% BSA, 2 mM DTT, 12 mM MgCl2 and 50 mM Tris-HCl (pH = 7.5)] was added into each well, the plate was incubated at 37 °C for 5 min, then 4.5 μl substrate of NAM was added to initiate the enzyme reaction, resulting in a final concentration of 2% DMSO, 2 μg/ml NAMPT, 0.2 μM NAM and 20 μM compound. After reacting at 37 °C for 15 min, the enzyme reaction was terminated by heating at 95 °C for 1 min and cooling in an ice bath. The product of NMN was detected through the following approach: after adding 10 μl 20% acetophenone in DMSO and 10 μl 2 M KOH into each well, the mixture was vortex-mixed and kept in ice bath for 2 min. […] Finally, 85 μl mixtures in each well were transferred into a flat-bottom 96-well black plate (Greiner), and the fluorescence (F) was measured using a Tecan Infinity M200 plate reader (Tecan Group Ltd.) by setting the excitation and emission wavelength to 382 nm and 445 nm respectively. The last row of each 96-well plate includes six wells of background controls and six wells of reference controls. The relative enzyme activity (Activity%) regulated by specific compound was calculated according to equation (1): […]
To determine the IC50 of inhibitors, 0.5 μl compound stocks with various concentrations were added into 96-well plate. The plate was incubated at 37 °C for 5 min after addition of 20 μl reaction buffer containing NAMPT. […] The IC50 values were determined by non-linear fitting of the concentration-dependent curves with the four-parameter IC50 logistic equation.

Test [1] deals with primary mouse hepatocytes. Briefly: Live cell fluorescence imaging in primary mouse hepatocytes (wild type vs NAMPT over expression transgenic). The format is cell-based. As to conditions: hepatocytes of NAMPT over expression transgenic vs wild type mice, 3 μM. On the procedure: Hepatocytes were isolated from mouse liver by the two-step collagenase perfusion method. […] For imaging experiment, 1 × 10^5 cells were plated in a 35-mm glass bottom dishes or 5 × 10^4 were plated in 48-well plate for cell viability assay in DMEM supplemented with 10% FBS and antibiotics, and kept under an atmosphere of 95% air and 5% CO2 at 37 °C.
as §1

T1 sequence (P43490 whole entry): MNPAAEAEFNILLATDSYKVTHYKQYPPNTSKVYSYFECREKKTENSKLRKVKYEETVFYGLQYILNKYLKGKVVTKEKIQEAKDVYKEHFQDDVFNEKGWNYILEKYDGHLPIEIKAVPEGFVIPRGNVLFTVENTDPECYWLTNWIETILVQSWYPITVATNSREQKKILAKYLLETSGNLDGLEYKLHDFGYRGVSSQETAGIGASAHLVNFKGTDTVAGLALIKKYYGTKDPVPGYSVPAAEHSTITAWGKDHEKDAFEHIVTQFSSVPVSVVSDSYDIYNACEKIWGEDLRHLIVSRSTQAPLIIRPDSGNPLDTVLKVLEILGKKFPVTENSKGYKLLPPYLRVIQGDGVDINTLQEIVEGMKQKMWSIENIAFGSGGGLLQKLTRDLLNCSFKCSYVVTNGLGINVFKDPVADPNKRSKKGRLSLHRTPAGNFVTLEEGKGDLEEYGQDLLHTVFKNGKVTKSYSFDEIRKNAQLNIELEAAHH

For the molecule `CCCn1c(=O)c(-c2ccc(C(=O)NCc3cccnc3)cc2)nc2ccccc21` [M049-0244], in the test with HepG2 cells (30 minutes incubation, washed), the “Cellular fluorescence in living HepG2 cells” value was “fluorescence was obviously detected within the cell; also recorded: significantly stained living HepG2 cells”. Moreover, the “Cellular fluorescence after NAMPT knockdown (RNAi-NAMPT)” value with HepG2 cells (HepG2, NAMPT siRNA vs nonspecific siRNA) is on record as “significantly reduced the fluoresecence”. In addition, the IC50 on recombinant human NAMPT was determined as 170 ± 12 nM. For the same molecule, the “Cellular fluorescence intensity with NAMPT over expression” value in test [1] was “increased the cellular fluorescence intensity”.
